Data on twelve molecules can be found in US11918668B2, “Method for producing glyceryl ether-containing composition, and glyceryl ether-containing composition” (ADEKA CORPORATION, priority 2018, dated 2024).

A short description of the data set: Measurement of total area by solid phase microextraction GC/FID method. Type of data set: physicochemical. The following applies: total area attributable to components other than the glyceryl ethers; 1.0 g glyceryl ether, 15 minutes at 50° C., after deodorization for the stated time. The arrangement: unit not given here. The protocol: The total area, as measured using a solid phase microextraction GC/FID method, was measured for each of glyceryl ethers 1 to 12 following the deodorization. Specifically, 1.0 g of a deodorized glyceryl ether was placed in a container, impurities and by-products contained in the glyceryl ether were adsorbed on fibers of DVB/PDMS (divinylbenzene dispersed/polydimethylsiloxane) by heating for 15 minutes at 50° C., these fibers were placed in a holder, and measurements were carried out using gas chromatography (apparatus: GC-2014, produced by Shimadzu Corporation) under the measurement conditions shown below. The total area attributable to components other than the glyceryl ethers was then calculated on the basis of a JIS K 0114 (2012) absolute calibration curve using the analysis software of the chromatography apparatus.
Column: InertCap (registered trademark) PureWAX (length 30 m, film […] 0.50 μm, inner diameter […])
Carrier flow rate: 124.5 mL/min
Injection port temperature: 260° C.
Detector temperature: 260° C.
As to `CCCCCCOCC(O)CO` (stereo not drawn) [Glyceryl ether 1, Monohexyl glyceryl ether], the Total area is recorded as 200,000.

As for `CCCCCCOCC(O)CO` (stereo not drawn) [Glyceryl ether 2, Monohexyl glyceryl ether], the Total area is listed as 120,000.

As for `CCCCCCOCC(O)CO` (stereo not drawn) [Glyceryl ether 3, Monohexyl glyceryl ether], the Total area is reported as 80,000.

As for `CCCCCCOCC(O)CO` (stereo not drawn) [Glyceryl ether 4, Monohexyl glyceryl ether], the Total area was 80,000.

As for `CCCCCCOCC(O)CO` (stereo not drawn) [Glyceryl ether 5, Monohexyl glyceryl ether], the Total area was 60,000.

On to `CCCCCCOCC(O)CO` (stereo not drawn) [Glyceryl ether 6, Monohexyl glyceryl ether], for which the Total area is reported as 50,000.

For `CCCCCCOCC(O)CO` (stereo not drawn) [Glyceryl ether 7, Monohexyl glyceryl ether], the Total area is listed as 50,000.

Regarding `OCC(O)COC1CCCCC1` (stereo not drawn) [Glyceryl ether 8, Monocyclohexyl glyceryl ether], the Total area was 300,000.

With `OCC(O)COC1CCCCC1` (stereo not drawn) [Glyceryl ether 9, Monocyclohexyl glyceryl ether], the Total area is recorded as 150,000.

Take `OCC(O)COC1CCCCC1` (stereo not drawn) [Glyceryl ether 10, Monocyclohexyl glyceryl ether]: the Total area is on record as 90,000.

Turning to `OCC(O)COC1CCCCC1` (stereo not drawn) [Glyceryl ether 11, Monocyclohexyl glyceryl ether], the Total area is 50,000.

Take `OCC(O)COC1CCCCC1` (stereo not drawn) [Glyceryl ether 12, Monocyclohexyl glyceryl ether]: the Total area was 50,000.
